Data: patent US20260217661A1, “TREATMENTS FOR PAIN” (Sevenless Therapeutics Limited, priority 2023, published 2026)

Target: T1, KRAS WT/SOS1 (Homo sapiens, UniProt Q07889)
T1 sequence (Q07889 1-1333): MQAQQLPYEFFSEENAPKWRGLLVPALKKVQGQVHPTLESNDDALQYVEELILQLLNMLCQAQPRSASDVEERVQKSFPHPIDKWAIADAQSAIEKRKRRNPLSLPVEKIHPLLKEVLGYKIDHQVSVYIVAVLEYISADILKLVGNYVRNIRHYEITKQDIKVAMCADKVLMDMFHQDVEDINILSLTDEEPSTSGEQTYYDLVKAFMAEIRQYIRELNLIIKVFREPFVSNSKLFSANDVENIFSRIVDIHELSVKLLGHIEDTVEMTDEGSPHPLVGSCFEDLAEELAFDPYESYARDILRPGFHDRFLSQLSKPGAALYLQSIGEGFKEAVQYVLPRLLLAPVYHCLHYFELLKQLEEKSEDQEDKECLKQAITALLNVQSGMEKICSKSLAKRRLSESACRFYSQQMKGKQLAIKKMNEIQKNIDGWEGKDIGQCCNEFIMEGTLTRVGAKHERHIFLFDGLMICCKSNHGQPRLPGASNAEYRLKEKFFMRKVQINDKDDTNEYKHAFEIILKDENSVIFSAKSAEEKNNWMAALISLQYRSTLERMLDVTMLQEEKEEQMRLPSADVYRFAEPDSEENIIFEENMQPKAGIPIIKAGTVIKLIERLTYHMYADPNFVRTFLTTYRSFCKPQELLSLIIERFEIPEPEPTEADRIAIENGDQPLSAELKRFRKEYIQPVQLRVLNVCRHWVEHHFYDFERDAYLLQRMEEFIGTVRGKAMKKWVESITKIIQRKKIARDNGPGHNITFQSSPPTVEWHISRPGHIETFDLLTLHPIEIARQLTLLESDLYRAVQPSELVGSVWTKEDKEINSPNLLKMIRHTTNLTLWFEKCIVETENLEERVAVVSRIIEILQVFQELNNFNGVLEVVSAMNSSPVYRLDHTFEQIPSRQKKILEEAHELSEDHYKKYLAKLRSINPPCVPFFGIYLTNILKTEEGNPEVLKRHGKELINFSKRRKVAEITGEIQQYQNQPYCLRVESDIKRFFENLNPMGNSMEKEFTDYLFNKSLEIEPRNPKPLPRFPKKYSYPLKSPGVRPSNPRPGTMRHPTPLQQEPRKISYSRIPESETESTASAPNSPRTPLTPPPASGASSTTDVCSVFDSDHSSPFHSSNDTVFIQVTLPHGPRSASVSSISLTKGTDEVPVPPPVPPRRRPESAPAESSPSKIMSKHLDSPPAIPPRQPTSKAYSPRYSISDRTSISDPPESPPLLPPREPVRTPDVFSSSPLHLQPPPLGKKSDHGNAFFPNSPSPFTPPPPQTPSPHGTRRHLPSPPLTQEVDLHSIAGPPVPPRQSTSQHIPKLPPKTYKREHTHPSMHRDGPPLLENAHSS
Assay: HTRF KRAS WT/SOS1 PPI kit (Cisbio) screen for SOS1 inhibitors
Type: binding
Conditions: HTRF KRAS WT/SOS1 PPI assay, 10-point dilution series starting at 10 μM, 60 minutes incubation
Experimental: Compounds were screened using an HTRF KRAS WT/SOS1 PPI kit provided by Cis bio, according to the manufacturer's instructions, with the modifications described below. All reagents were allowed to equilibrate to room temperature and diluted to working stock in Binding Domain Detection buffer (BDD buffer). Stock solutions were prepared by adding 1 part Tag1-KRAS WT/GTP to 1 part Tag2-SOS1 and 1 part BDD. Separately, 1 part Anti-Tag1 XL665 antibody premix was added to Anti-Tag2 Tb cryptate antibody premix. BI-3406 (Selleck Chemicals) was used as a standard, solubilised to 10 mM in DMSO. Test compounds were also solubilised to 10 mM in DMSO. […] Per well, 6 uL of Tag1-KRAS WT/GTP premix, 4 ul Tag2-SOS1 premix and 10 μl of Anti-Tag1 XL665 and Anti-Tag2 Tb cryptate antibodies were then added using a E1-ClipTip™ Electronic Adjustable Multichannel Equalizer Pipette. After the final addition, the plate was covered and placed in the benchtop incubator set at 22° C. The reaction was incubated for 60 minutes at room temperature, prior to reading using a Pherastar FSX plate reader.

Compound: COc1cc2nncc(N[C@H](C)c3cccc(C(F)F)c3F)c2cc1N1CC2CC(C1)O2 [Example-8, 6-(6-oxa-3-azabicyclo [3.1.1]heptan-3-yl)-N—((R)-1-(3-(difluoromethyl)-2-fluorophenyl)ethyl)-7-methoxycinnolin-4-amine]
- IC50: < 100 nM
